We go through twelve compounds from patent US8765755B2, “N-containing heterocyclic compounds” (YM Biosciences Australia Pty Ltd, priority 2007, dated 2014).

For one experiment, the system named is BafT_J3. The experiment in a line: Cellular screening, BaF3 TEL:JAK3 cells (Alamar Blue). It is filed as cell-based. Conditions: Mus musculus, 40 hr incubation. The method, then: (§1) For screening purposes, compounds were diluted in 96 well plates at a concentration of 20 μM. Plates were warmed at 37° C. for 30 minutes before the assay was performed.
(§2) The coding region encompassing nucleotides 1-487 of TEL was amplified by PCR using the oligonucleotides 5TEL (5′-GGAGGATCCTGATCTCTCTCGCTGTGAGAC-3′) [SEQ ID NO 14] and 3TEL (5′-AGGC GTCGACTTCTTCTTCATGGTTCTG-3′) [SEQ ID NO 15] and U937 mRNA as a template. A BamHI restriction site was incorporated into the 5TEL primer, and a Sal I restriction site was incorporated into the 3TEL primer. The regions encompassing the kinase domain of JAK2 (nucleotides 2994-3914; JAK2F 5′-ACGC GTCGACGGTGCCTTTGAAGACCGGGAT-3′ [SEQ ID NO 16]; JAK2R 5′-ATAGTTTAGCGGCCGCTCAGAATGAAGGTCATTT-3′) [SEQ ID NO 17] and JAK3 (nucleotides 2520-3469; JAK3F 5′-GAAGTCGACTATGCCTGCCAAGACCCCACGATCTT-3′) [SEQ ID NO 18] were generated by PCR using Taq DNA polymerase (Gibco/BRL) and U937 mRNA as a template. A Sal I restriction site was incorporated into the forward primer of JAK2 and JAK3, a Not I site was incorporated into the JAK2 reverse primer and a Xba I site was added to the reverse primer of JAK3.
The TEL/Jak3 fusion was prepared by ligation of the JAK3 Sal I/Not I cleaved kinase domain PCR product with the BamH I/Sal I restriction digested TEL product, followed by ligation of the ligation product into the BamH I/Not I digested pTRE2, to give the TEL/Jak3 fusion plasmid pTELJAK3.
(§3) The growth factor dependant myelomonocytic cell line BaF3 bearing the pTET-off plasmid (Clontech) was transfected with either pTELJAK2 or pTELJAK3, and the transfected cells were selected for growth-factor independent cell growth. The BaF3 wild-type cells were cultured in DMEM containing 10% FCS, 10% WEHI 3B conditioned medium. The BaF3 TELJAK cells ([…]) were cultured in DMEM 10% Tet-System Approved FBS (without WEHI 3B conditioned medium).
(§4) Cell suspensions were prepared by harvesting cells from culture. (the cells used in this test were in late log phase growth with high viability.) Cells were diluted in the appropriate growth medium, as described above, to 1.1× final concentration (from 50,000 cell/mL to 200,000 cell/mL, depending on cell line).
(§5) Compounds to be tested were added (10 μL, 10× final concentration) to a flat bottomed 96-well plate. The cellular suspension (90 μL per well) was then added, and the plate incubated for 40 hr at 37° C., 5% CO2. Alamar Blue 10 μL per well was added and the plates returned to the incubator for a further 4-6 hours. The plates were then read at 544 nm.
In general terms: The colour change of resazurin is a common sign of viable cells or microbes.

For the next experiment, the system named is BAF3wt. The experiment in a line: Cellular screening, BaF3 wild-type cells (Alamar Blue). Type of experiment: cell-based. Conditions: Mus musculus, 40 hr incubation. The method, then:
as §1, §3, §4, §5

In the next experiment the test system is CTLL2. The experiment in a line: Cellular screening, CTLL2 cells (Alamar Blue). Type of experiment: cell-based. Conditions: Mus musculus, CTLL-2, 40 hr incubation. The method, then: as §1, §4, §5
The target in another experiment is T1, human JAK3 (Homo sapiens, UniProt P52333).
T1 construct: The kinase domain of human JAK3 was amplified; GST (N); made in house; host or cells: Sf9 (Spodoptera frugiperda) insect cells, baculovirus
T1 sequence (P52333 822-1111 limits assumed): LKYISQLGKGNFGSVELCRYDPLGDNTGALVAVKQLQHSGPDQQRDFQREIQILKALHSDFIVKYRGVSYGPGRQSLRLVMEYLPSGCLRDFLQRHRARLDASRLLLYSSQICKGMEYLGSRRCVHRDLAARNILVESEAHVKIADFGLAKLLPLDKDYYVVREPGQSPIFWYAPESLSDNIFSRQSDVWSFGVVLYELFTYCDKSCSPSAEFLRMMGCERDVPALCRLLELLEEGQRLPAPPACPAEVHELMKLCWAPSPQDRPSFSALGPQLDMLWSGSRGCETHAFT
The experiment in a line: JAK3 kinase enzyme assay (Alphascreen). Conditions: 80 or 625 um ATP. It is filed as biochemical. The method, then:
(§6) For screening purposes, compounds (in 100% DMSO) were warmed at 37 degrees for at least 20 minutes before use. A […] stock was initially made in assay buffer, where the final concentration of DMSO was 0.3%. The stocks were then diluted in 384 well Optiplates (Packard) where the final concentration of the compound was 5 μM.
The kinase domain of human JAK3 was amplified from U937mRNA using the polymerase chain reaction with the following primers: […]
The JAK3 PCR products were cloned into the pDest20 destination expression vector (Gibco). The JAK3 plasmid was then transformed into competent DH10Bac cells (Gibco), and the recombinant baculovirus was prepared via Sf9 insect cell transfection.
(§7) Baculovirus preparations from each of the JAK family members were infected into one litre of Sf9 (Spodoptera frugiperda) cells (Invitrogen) grown in SF900II serum free medium (Invitrogen) to a cell density of approximately 2×10^6 cells/ml. Cells were infected with virus at a cell culture to virus stock ratio of 20:1. Cells were harvested and lysed 48 hours post infection. The GST-tagged JAK kinase domains were purified by affinity chromatography on a GSH agarose column (Scientifix).
(§8) Kinase assays were performed in 384 well Optiplates (Packard) using an Alphascreen Protein Tyrosine KinaseP100 detection kit The compounds were pre-incubated with affinity purified PTK domain in the presence of phosphotyrosine assay buffer (10 mM HEPES, pH 7.5, 100 mM MgCl2, 25 mM NaCl, 200 mM sodium vanadate and 0.1% Tween 20) for 20 minutes. The compounds were then incubated with substrate in the presence of either 80 or 625 um ATP for 60 or 90 minutes. The substrate used was either susbtrate-1 with the sequence biotin-EGPWLEEEEEAYGWMDF-NH2 [SEQ. ID. NO. 13] (final concentration 111 μM) or susbtrate-2 substrate with the sequence biotin-EQEDEPEGDYFEWLEPE (final concentration 133 μM). Alphascreen phosphotyrosine acceptor beads followed by streptavidin donor beads at a concentration of 1/100 in stop buffer were added to each well under subdued light and incubated for 2-3 hours. The Alphascreen plates were read on a Packard Fusion Alpha instrument.
On the technique in general: In Alpha technology, singlet oxygen from a donor bead excites a nearby acceptor bead.

The next experiment concerns the target T2, human JAK2 (Homo sapiens, UniProt O60674).
T2 construct: The kinase domain of human JAK2 was amplified; GST (N); made in house; host or cells: Sf9 (Spodoptera frugiperda) insect cells, baculovirus
The experiment in a line: JAK2 kinase enzyme assay (Alphascreen). Conditions: 80 or 625 um ATP. It is filed as biochemical. The method, then:
as §6
The kinase domain of human JAK2 was amplified from U937mRNA using the polymerase chain reaction with the following primers: […]
The JAK2 PCR products were cloned into the pDest20 destination vector (Gibco). The JAK2 plasmid was then transformed into competent DH10Bac cells (Gibco), and the recombinant baculovirus was prepared via Sf9 insect cell transfection.
as §7, §8

Another experiment has as its system BafT_J2. Kind of experiment: Cellular screening, BaF3 TEL:JAK2 cells (Alamar Blue). Type of experiment: cell-based. Conditions: Mus musculus, 40 hr incubation. The method, then:
as §1, §2
A TEL/Jak2 fusion was generated by digestion of the TELPCR product with BamH I/Sal I restriction enzymes, digestion of the JAK2 PCR product with Sal I/Not I restriction enzymes, followed by ligation and subcloning of the ligation product into the mammalian expression Vector pTRE 2 (Clontech), which was prepared by digestion with BamH I-Not I restriction enzymes, to give the TEL/Jak2 fusion plasmid pTELJAK2.
as §3, §4, §5

SMILES strings stand for the structures.

T2 sequence (O60674 849-1124 limits assumed): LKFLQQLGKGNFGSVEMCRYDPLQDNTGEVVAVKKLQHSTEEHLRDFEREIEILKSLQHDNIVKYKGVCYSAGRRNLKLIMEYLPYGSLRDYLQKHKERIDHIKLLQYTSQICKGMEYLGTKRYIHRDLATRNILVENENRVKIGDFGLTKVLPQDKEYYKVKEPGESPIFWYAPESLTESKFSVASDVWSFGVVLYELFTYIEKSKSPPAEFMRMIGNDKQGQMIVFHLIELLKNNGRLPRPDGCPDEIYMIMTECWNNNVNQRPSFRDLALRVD

As a reminder, the IC50 is the concentration needed to halve the response being measured. With `COc1ncccc1-c1csc2cnc(Nc3ccc(N4CCOCC4)cc3)nc12` [Compound 45, 7-(2-methoxypyridin-3-yl)-N-(4-morpholinophenyl)thieno[3,2-d]pyrimidin-2-amine], the IC50 in the experiment with BafT_J3 is < 1000 nM; in the experiment on BAF3wt, < 1000 nM; with CTLL2, < 1000 nM; against human JAK3 it was < 100 nM; against human JAK2 it was < 100 nM; with BafT_J2 it was < 1000 nM.
For the compound `COc1ccc(Nc2ncc3scc(-c4cccnc4OC)c3n2)cc1OC` [Compound 52, N-(3,4-dimethoxyphenyl)-7-(2-methoxypyridin-3-yl)thieno[3,2-d]pyrimidin-2-amine], the IC50 in the experiment on BafT_J3 is < 1000 nM; with BAF3wt it was < 1000 nM; with CTLL2 it was < 1000 nM; against human JAK3 it was < 100 nM; against human JAK2, < 100 nM; in the experiment with BafT_J2, < 1000 nM.
For the compound `COc1ccc(-c2csc3cnc(Nc4ccc(OC)c(OC)c4)nc23)c(OC)n1` [Compound 55, N-(3,4-dimethoxyphenyl)-7-(2,6-dimethoxypyridin-3-yl)thieno[3,2-d]pyrimidin-2-amine], the IC50 is < 5000 nM in the experiment with BafT_J3; < 5000 nM in the experiment on BAF3wt; < 5000 nM with CTLL2; < 100 nM against human JAK3; < 100 nM on human JAK2; < 5000 nM with BafT_J2.
For the compound `COc1ncc(-c2csc3cnc(Nc4ccc(OC)c(OC)c4)nc23)c(OC)n1` [Compound 56, N-(3,4-dimethoxyphenyl)-7-(2,4-dimethoxypyrimidin-5-yl)thieno[3,2-d]pyrimidin-2-amine], the 50% inhibitory concentration (IC50) in the experiment with BafT_J3 is < 5000 nM; with BAF3wt, < 5000 nM; with CTLL2, < 5000 nM; against human JAK3, < 100 nM; at human JAK2 it was < 100 nM; in the experiment on BafT_J2, < 5000 nM.
For the compound `CC(C)(C)NS(=O)(=O)c1cccc(-c2csc3cnc(Nc4ccc(CN5CCOCC5)cc4)nc23)c1` [Compound 58, N-tert-butyl-3-(2-(4-(morpholinomethyl)phenylamino)thieno[3,2-d]pyrimidin-7-yl)benzenesulfonamide], the IC50 with BafT_J3 was < 1000 nM; in the experiment with BAF3wt it was < 1000 nM; in the experiment with CTLL2, < 1000 nM; at human JAK3 it was < 500 nM; at human JAK2, < 100 nM; in the experiment on BafT_J2, < 1000 nM.
Consider `CC(=O)Nc1cccc(-c2csc3cnc(Nc4ccc(OCCN5CCCC5)cc4)nc23)c1` [Compound 62, N-(3-(2-(4-(2-(pyrrolidin-1-yl)ethoxy)phenylamino)thieno[3,2-d]pyrimidin-7-yl)phenyl)acetamide], for which the IC50 in the experiment on BafT_J3 is < 1000 nM; in the experiment on BAF3wt it was < 1000 nM; in the experiment on CTLL2 it was < 1000 nM; against human JAK3, < 100 nM; against human JAK2, < 100 nM; with BafT_J2, < 1000 nM.
As to `N#CCNC(=O)c1cccc(-c2csc3cnc(Nc4ccc(N5CCOCC5)cc4)nc23)c1` [Compound 63, N-(cyanomethyl)-3-(2-(4-morpholinophenylamino)thieno[3,2-d]pyrimidin-7-yl)benzamide], the IC50 in the experiment with BafT_J3 was < 1000 nM; with BAF3wt, < 1000 nM; in the experiment on CTLL2 it was < 1000 nM; against human JAK3, < 100 nM; on human JAK2, < 100 nM; in the experiment with BafT_J2, < 1000 nM.
Turning to `CCN1CCC(Oc2ccc(Nc3ncc4scc(-c5cccc(S(=O)(=O)NC(C)(C)C)c5)c4n3)cc2)CC1` [Compound 65, N-tert-butyl-3-(2-(4-(1-ethylpiperidin-4-yloxy)phenylamino)thieno[3,2-d]pyrimidin-7-yl)benzenesulfonamide], the IC50 was < 1000 nM with BafT_J3; < 5000 nM in the experiment on BAF3wt; < 5000 nM in the experiment on CTLL2; < 100 nM on human JAK3; < 100 nM against human JAK2; < 1000 nM in the experiment on BafT_J2.
Regarding `CCN1CCN(Cc2ccc(Nc3ncc4scc(-c5cccc(S(=O)(=O)NC(C)(C)C)c5)c4n3)cc2)CC1` [Compound 68, N-tert-butyl-3-(2-(4-((4-ethylpiperazin-1-yl)methyl)phenylamino)thieno[3,2-d]pyrimidin-7-yl)benzenesulfonamide], the half-inhibitory concentration (IC50) in the experiment with BafT_J3 was < 1000 nM; in the experiment with BAF3wt, < 1000 nM; with CTLL2, < 5000 nM; at human JAK3, < 500 nM; at human JAK2, < 100 nM; in the experiment on BafT_J2, < 1000 nM.
In the case of `N#CCNC(=O)c1cccc(-c2csc3cnc(Nc4ccc(CN5CCOCC5)cc4)nc23)c1` [Compound 70, N-(cyanomethyl)-3-(2-(4-(morpholinomethyl)phenylamino)thieno[3,2-d]pyrimidin-7-yl)benzamide], the IC50 in the experiment on BafT_J3 is < 1000 nM; with BAF3wt, < 1000 nM; with CTLL2 it was < 5000 nM; against human JAK3 it was < 100 nM; at human JAK2, < 100 nM; in the experiment on BafT_J2, < 1000 nM.
For the compound `CC(C)(C)NS(=O)(=O)c1cccc(-c2csc3cnc(Nc4ccc(OCCN5CCCC5)cc4)nc23)c1` [Compound 71, N-tert-butyl-3-(2-(4-(2-(pyrrolidin-1-yl)ethoxy)phenylamino)thieno[3,2-d]pyrimidin-7-yl)benzenesulfonamide], the IC50 was < 1000 nM with BafT_J3; < 5000 nM in the experiment on BAF3wt; < 5000 nM in the experiment on CTLL2; < 100 nM at human JAK3; < 100 nM against human JAK2; < 1000 nM in the experiment on BafT_J2.
Turning to `CC(C)(C)OC(=O)NCc1cccc(-c2csc3cnc(Nc4ccc(OCCN5CCCC5)cc4)nc23)c1` [Compound 72], the IC50 is < 1000 nM in the experiment on BafT_J3; < 5000 nM with BAF3wt; < 1000 nM in the experiment on CTLL2; < 100 nM against human JAK3; < 100 nM at human JAK2; < 1000 nM in the experiment on BafT_J2.
